{
  "source": "patent US6855513B1",
  "about": "(priority 1999, dated 2005)",
  "key": {"[1]": {"system": "lasB-lacZ chromosomal fusion", "assay": "Acyl-HSL response of lasB-lacZ chromosomal fusion in P. aeruginosa PAO-MW1", "assay_type": "cell-based, Pseudomonas aeruginosa", "conditions": "late response", "description": "E. coli and P. aeruginosa were routinely grown in Luria-Bertani (LB) broth or LB agar (Sambrook, et al. (1989) Molecular Cloning: a Laboratory Manual. (Cold Spring Harbor Laboratory, Cold Spring Harbor, N.Y.)), supplemented with antimicrobial agents when necessary. The antimicrobial agents were used at the following concentrations: HgCl2, 15 μg/ml in agar and 7.5 μg/ml in broth; nalidixic acid 20 μg/ml; carbenicillin, 300 μg/ml; tetracycline, 50 μg/ml for P. aeruginosa and 20 μg/ml for E. coli; and gentamicin, 100 μg/ml for P. aeruginosa and 15 μg/ml for E. coli. Synthetic acyl-HSL concentrations were 2 μM for 3OC12-HSL and 5 μM for C4-HSL, and 5-bromo4-chloro-3-indolyl-β-D-galactopyranoside (X-Gal) was used at 50 μg/ml.\nA mutant strain, P. aeruginosa PAO-MW 10, which contains a lacZ reporter in the chromosomal lasB gene was constructed by introduction of pMW300 into PAO-MW1 by triparental mating as described above. Exconjugants resistant to gentamicin and sensitive to chloramphenicol were selected as potential recombinants.\nPatterns of Acyl-HSL Induction of β-galactosidase Activity in qsc Mutants. The pattern of β-galactosidase expression was examined in response to acyl-HSLs in each of 47 qsc mutants identified in the initial screen. […] Growth was monitored as OD at 600 nm and β-galactosidase activity was measured in 0.1 ml samples taken at 0, 2, 5, and 9 hours after inoculation."}, "[2]": {"system": "P. aeruginosa lasI mutant biofilm", "conditions": "flow-through chamber; resistance to 0.2% sodium dodecyl sulfate; cited from earlier work"}},
  "data": [
    {"molecule": "CCCCCCCCCC(=O)CC(=O)N[C@H]1CCOC1=O", "note": "[3OC12-HSL, N-(3-oxododecanoyl) homoserine lactone]", "values": [
      {"measurement": "Stimulation of lasB-lacZ fusion over background", "setting": "[1]", "value": 3, "unit": "fold"},
      {"measurement": "Biofilm phenotype after adding signal back to lasI mutant cells", "setting": "[2]", "value": "wild type phenotype was restored"}
    ]}
  ]
}
